Experimental data from BindingDB's records for doi:10.1021/jm00160a010 (1986).

Assay: Compound was tested for binding affinity against delta opioid receptor in guinea pig brain membrane using [3H]EK as the radioligand

`CN1CC[C@]23c4c5ccc(O)c4O[C@@H]2[C@H](NC(=O)CNC(=O)CNC(=O)CCC(=O)NCC(=O)NCC(=O)N[C@@H]2CC[C@]4(O)[C@H]6Cc7ccc(O)c8c7[C@@]4(CCN6C)[C@@H]2O8)CC[C@]3(O)[C@H]1C5` [1N,4N-di[10,17-dihydroxy-4-methyl-(13S,14R,17R)-12-oxa-4-azapentacyclo[9.6.1.01,13.05,17.07,18]octadeca-7(18),8,10-trien-14-ylcarbamoylmethylcarbamoylmethyl]succinamide] showed a Ki of 27 nM.

Assay: Displacement of [3H]EK from Opioid receptor delta 1 in guinea pig brain membrane

In order of rising Ki:
1. O=C(CCC(=O)NCC(=O)NCC(=O)N[C@@H]1CC[C@@]2(O)[C@H]3Cc4ccc(O)c5c4[C@@]2(CCN3CC2CC2)[C@H]1O5)NCC(=O)NCC(=O)N[C@@H]1CC[C@@]2(O)[C@H]3Cc4ccc(O)c5c4[C@@]2(CCN3CC2CC2)[C@H]1O5 [1N,4N-di[4-cyclopropylmethyl-10,17-dihydroxy-(13R,14R,17S)-12-oxa-4-azapentacyclo[9.6.1.01,13.05,17.07,18]octadeca-7(18),8,10-trien-14-ylcarbamoylmethylcarbamoylmethyl]succinamide]  4.9 nM
2. O=C(CCC(=O)NCC(=O)NCC(=O)NCC(=O)N[C@@H]1CC[C@@]2(O)[C@H]3Cc4ccc(O)c5c4[C@@]2(CCN3CC2CC2)[C@H]1O5)NCC(=O)NCC(=O)NCC(=O)N[C@@H]1CC[C@@]2(O)[C@H]3Cc4ccc(O)c5c4[C@@]2(CCN3CC2CC2)[C@H]1O5 [1N,4N-di[4-cyclopropylmethyl-10,17-dihydroxy-(13R,14R,17S)-12-oxa-4-azapentacyclo[9.6.1.01,13.05,17.07,18]octadeca-7(18),8,10-trien-14-ylcarbamoylmethylcarbamoylmethylcarbamoylmethyl]succinamide]  6.4 nM
3. O=C(CCC(=O)NCC(=O)N[C@@H]1CC[C@@]2(O)[C@H]3Cc4ccc(O)c5c4[C@@]2(CCN3CC2CC2)[C@H]1O5)NCC(=O)N[C@@H]1CC[C@@]2(O)[C@H]3Cc4ccc(O)c5c4[C@@]2(CCN3CC2CC2)[C@H]1O5 [1N,4N-di[4-cyclopropylmethyl-10,17-dihydroxy-(13R,14R,17S)-12-oxa-4-azapentacyclo[9.6.1.01,13.05,17.07,18]octadeca-7(18),8,10-trien-14-ylcarbamoylmethyl]succinamide]  7.8 nM
4. O=C(CCC(=O)N[C@@H]1CC[C@@]2(O)[C@H]3Cc4ccc(O)c5c4[C@@]2(CCN3CC2CC2)[C@H]1O5)N[C@@H]1CC[C@@]2(O)[C@H]3Cc4ccc(O)c5c4[C@@]2(CCN3CC2CC2)[C@H]1O5 [1N,4N-di[4-cyclopropylmethyl-10,17-dihydroxy-(13R,14R,17S)-12-oxa-4-azapentacyclo[9.6.1.01,13.05,17.07,18]octadeca-7(18),8,10-trien-14-yl]succinamide]  12 nM
5. CN1CC[C@]23c4c5ccc(O)c4O[C@@H]2[C@H](NC(=O)CNC(=O)CNC(=O)CNC(=O)CCC(=O)NCC(=O)NCC(=O)NCC(=O)N[C@@H]2CC[C@]4(O)[C@H]6Cc7ccc(O)c8c7[C@@]4(CCN6C)[C@@H]2O8)CC[C@]3(O)[C@H]1C5 [1N,4N-di[10,17-dihydroxy-4-methyl-(13R,14S,17S)-12-oxa-4-azapentacyclo[9.6.1.01,13.05,17.07,18]octadeca-7(18),8,10-trien-14-ylcarbamoylmethylcarbamoylmethyl]succinamide]  42 nM
6. CN1CC[C@]23c4c5ccc(O)c4O[C@H]2[C@@H](NC(=O)CNC(=O)CNC(=O)CCC(=O)NCC(=O)NCC(=O)N[C@H]2CC[C@@]4(O)[C@H]6Cc7ccc(O)c8c7[C@@]4(CCN6C)[C@H]2O8)CC[C@@]3(O)[C@H]1C5 [1N,4N-di[10,17-dihydroxy-4-methyl-(13R,14S,17S)-12-oxa-4-azapentacyclo[9.6.1.01,13.05,17.07,18]octadeca-7(18),8,10-trien-14-ylcarbamoylmethylcarbamoylmethylcarbamoylmethyl]succinamide]  50 nM
7. CN1CC[C@]23c4c5ccc(O)c4O[C@@H]2[C@H](NC(=O)CNC(=O)CCC(=O)NCC(=O)N[C@@H]2CC[C@]4(O)[C@H]6Cc7ccc(O)c8c7[C@@]4(CCN6C)[C@@H]2O8)CC[C@]3(O)[C@H]1C5 [1N,4N-di[10,17-dihydroxy-4-methyl-(13R,14S,17S)-12-oxa-4-azapentacyclo[9.6.1.01,13.05,17.07,18]octadeca-7(18),8,10-trien-14-ylcarbamoylmethyl]succinamide]  86 nM
8. CN1CC[C@]23c4c5ccc(O)c4O[C@@H]2[C@H](NC(=O)CCC(=O)N[C@@H]2CC[C@]4(O)[C@H]6Cc7ccc(O)c8c7[C@@]4(CCN6C)[C@@H]2O8)CC[C@]3(O)[C@H]1C5 [1N,4N-di[10,17-dihydroxy-4-methyl-(13R,14S,17S)-12-oxa-4-azapentacyclo[9.6.1.01,13.05,17.07,18]octadeca-7(18),8,10-trien-14-yl]succinamide]  200 nM
